Drawing on patent publication US20230117034A1, “PYRAZOLOTRIAZINES” (Bayer Aktiengesellschaft, priority 2019, published 2023), this text covers IC50 for ten compounds.

For one experiment, the target named is T1, CDK2/CycE (Homo sapiens, UniProt P24941).
T1 construct: purchased ProQinase GmbH (Freiburg, Germany); host or cells: insect cells (Sf9)
The experiment can be described thus: CDK2/CycE kinase assay (TR-FRET, 2 mM ATP). Type of experiment: biochemical. Particulars: 2 mM ATP (high ATP); median; read-out: CDK2/CyclinE, 2 mM ATP (high ATP), IC50 (median). The essentials:
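Biotin-peptide phosphorylation (0.75 µM substrate, 2 mM ATP final, 25 min, 22 °C) by Sf9-expressed GST-CDK2/GST-CycE, after a 15-min compound pre-binding step. Inhibition scaled between enzyme-free (100%) and uninhibited (0%) wells.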

Experiment [1] has as its system CAL-120, human breast adenocarcinoma cells. The experiment can be described thus: Proliferation assay CAL-120 (crystal violet, 4 days). Type of experiment: cell-based. The settings on record: CAL-120 cells, median, read-out: Prolif-CAL-120, IC50-[mol/l] (median). The essentials:
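IC50 from a 4-parameter fit of crystal violet absorbance (595 nm), scaled between the day-of-dosing plate (0%) and vehicle cells (100%). MDA-MB-231 or CAL-120 cells were treated for 4 days with 0.01–10 micromol/L compound in 0.1% DMSO after 24 h attachment.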

Read-outs that look alike come from different tables or passages of the source.

Consider `CN(CC(C)(C)O)c1nc(NCc2nc3cc(C(F)(F)F)ccc3[nH]2)n2ncc(C3CC3)c2n1` [Example 323, 1-{[8-cyclopropyl-4-({[5-(trifluoromethyl)-1H-benzimidazol-2-yl]methyl}amino)pyrazolo[1,5-a][1,3,5]triazin-2-yl](methyl)amino}-2-methylpropan-2-ol], for which the IC50 on CDK2/CycE amounted to 13500 nM; in experiment [1] (Homo sapiens, CAL-120, 96 h), 5.4 nM.

For `CN1CCCN(c2nc(NCc3nc4ccccc4[nH]3)n3ncc(Br)c3n2)CC1` [Example 390, N-[(1H-benzimidazol-2-yl)methyl]-8-bromo-2-(4-methyl-1,4-diazepan-1-yl)pyrazolo[1,5-a][1,3,5]triazin-4-amine], the IC50 is greater than 20000 nM on CDK2/CycE and 29.8 nM in experiment [1] (Homo sapiens, CAL-120, 96 h).

Consider `CN1CCN(c2nc(NCc3nc4c(F)c(Cl)ccc4[nH]3)n3ncc(Br)c3n2)CC1` [Example 373, 8-bromo-N-[(5-chloro-4-fluoro-1H-benzimidazol-2-yl)methyl]-2-(4-methylpiperazin-1-yl)pyrazolo[1,5-a][1,3,5]triazin-4-amine], for which the IC50 at CDK2/CycE was determined as 7500 nM; in experiment [1] (Homo sapiens, CAL-120, 96 h), 1.93 nM.

As for `Fc1c(Cl)ccc2[nH]c(CNc3nc(N4CC5CCC(C4)N5)nc4c(C5CC5)cnn34)nc12` [Example 379, N-[(5-chloro-4-fluoro-1H-benzimidazol-2-yl)methyl]-8-cyclopropyl-2-(3,8-diazabicyclo[3.2.1]octan-3-yl)pyrazolo[1,5-a][1,3,5]triazin-4-amine], the IC50 on CDK2/CycE came to 14300 nM; in experiment [1] (Homo sapiens, CAL-120, 96 h) it was 1.71 nM.

Take `Fc1c(Cl)ccc2[nH]c(CNc3nc(N4CCOCC4)nc4c(C5CC5)cnn34)nc12` [Example 370, N-[(5-chloro-4-fluoro-1H-benzimidazol-2-yl)methyl]-8-cyclopropyl-2-(morpholin-4-yl)pyrazolo[1,5-a][1,3,5]triazin-4-amine]: the IC50 was greater than 20000 nM at CDK2/CycE and 3.59 nM in experiment [1] (Homo sapiens, CAL-120, 96 h).

Take `Fc1ccc2[nH]c(CNc3nc(N4CC5CCC(C4)N5)nc4c(Cl)cnn34)nc2c1F.O=CO` [Example 360, formic acid 8-chloro-2-(3,8-diazabicyclo[3.2.1]octan-3-yl)-N-[(4,5-difluoro-1H-benzimidazol-2-yl)methyl]pyrazolo[1,5-a][1,3,5]triazin-4-amine]: the IC50 on CDK2/CycE was 12100 nM; in experiment [1] (Homo sapiens, CAL-120, 96 h), 2.24 nM.

Regarding `CN(c1nc(NCc2nc3ccccc3[nH]2)n2ncc(Br)c2n1)[C@H]1C[C@H](O)C1` [Example 365, trans-3-[(4-{[(1H-benzimidazol-2-yl)methyl]amino}-8-bromopyrazolo[1,5-a][1,3,5]triazin-2-yl)(methyl)amino]cyclobutan-1-ol], the IC50 on CDK2/CycE amounted to 1740 nM; in experiment [1] (Homo sapiens, CAL-120, 96 h), 70.2 nM.

`Clc1cc2nc(CNc3nc(N4CCOCC4)nc4c(Br)cnn34)[nH]c2cc1Cl` [Example 329, 8-bromo-N-[(5,6-dichloro-1H-benzimidazol-2-yl)methyl]-2-(morpholin-4-yl)pyrazolo[1,5-a][1,3,5]triazin-4-amine]: the IC50 on CDK2/CycE stood at 9460 nM; in experiment [1] (Homo sapiens, CAL-120, 96 h) it was 6.11 nM.

For the compound `Cc1cc2nc(CNc3nc(N4CCOCC4)nc4c(Br)cnn34)[nH]c2cc1C` [Example 340, 8-bromo-N-[(5,6-dimethyl-1H-benzimidazol-2-yl)methyl]-2-(morpholin-4-yl)pyrazolo[1,5-a][1,3,5]triazin-4-amine], the IC50 was determined as 1160 nM on CDK2/CycE and 3.36 nM in experiment [1] (Homo sapiens, CAL-120, 96 h).

As to `Brc1cnn2c(NCc3nc4ccccc4[nH]3)nc(N3C[C@H]4CC[C@@H]3CO4)nc12` (single isomer, unassigned; enantiomer 2) [Example 391, N-[(1H-benzimidazol-2-yl)methyl]-8-bromo-2-{[1R or S-(1R*,4R*)]-2-oxa-5-azabicyclo[2.2.2]octan-5-yl}pyrazolo[1,5-a][1,3,5]triazin-4-amine (Enantiomer 2)], the IC50 on CDK2/CycE was found to be 4910 nM; in experiment [1], 8.31 nM.
